# From ChEMBL document CHEMBL4425186, “Discovery and SAR of pyrrolo[2,1-f][1,2,4]triazin-4-amines as potent and selective PI3Kδ inhibitors” (Bioorg Med Chem Lett, 2016)
# Key:
# [1] = target: T1, Phosphatidylinositol 4,5-bisphosphate 3-kinase catalytic subunit delta isoform (Homo sapiens, UniProt O00329)
# T1 sequence (O00329 whole entry): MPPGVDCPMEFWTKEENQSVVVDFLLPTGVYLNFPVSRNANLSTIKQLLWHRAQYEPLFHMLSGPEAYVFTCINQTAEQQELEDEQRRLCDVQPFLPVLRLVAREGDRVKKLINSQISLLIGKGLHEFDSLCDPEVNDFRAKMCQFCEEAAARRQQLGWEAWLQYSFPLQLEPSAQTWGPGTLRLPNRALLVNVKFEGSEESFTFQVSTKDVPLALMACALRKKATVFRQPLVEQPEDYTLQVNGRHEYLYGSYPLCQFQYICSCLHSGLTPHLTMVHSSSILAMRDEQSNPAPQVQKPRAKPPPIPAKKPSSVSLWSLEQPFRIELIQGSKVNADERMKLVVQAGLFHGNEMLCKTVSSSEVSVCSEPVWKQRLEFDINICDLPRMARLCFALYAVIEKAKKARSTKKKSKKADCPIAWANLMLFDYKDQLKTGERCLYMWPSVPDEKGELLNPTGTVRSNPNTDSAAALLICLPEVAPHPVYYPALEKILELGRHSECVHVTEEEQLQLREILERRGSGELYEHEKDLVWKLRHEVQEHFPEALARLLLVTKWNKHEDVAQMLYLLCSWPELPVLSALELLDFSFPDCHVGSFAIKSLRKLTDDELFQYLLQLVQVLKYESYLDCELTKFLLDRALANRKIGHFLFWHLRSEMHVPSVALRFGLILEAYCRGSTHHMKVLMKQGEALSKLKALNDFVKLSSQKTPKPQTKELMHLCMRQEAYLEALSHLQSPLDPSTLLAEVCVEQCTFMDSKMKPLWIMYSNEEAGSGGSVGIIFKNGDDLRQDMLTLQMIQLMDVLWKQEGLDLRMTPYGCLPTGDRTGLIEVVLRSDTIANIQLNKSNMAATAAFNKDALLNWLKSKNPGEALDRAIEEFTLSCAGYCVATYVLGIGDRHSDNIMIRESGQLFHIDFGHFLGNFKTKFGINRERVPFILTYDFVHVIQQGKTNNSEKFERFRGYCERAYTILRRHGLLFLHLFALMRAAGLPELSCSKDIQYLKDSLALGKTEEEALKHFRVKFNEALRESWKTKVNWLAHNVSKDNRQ
# [2] = Stability in mouse liver microsomes assessed as parent compound remaining at 0.5 uM after 10 mins by high throughput assay; format: ADME, Microsome; settings: read-out: Stability
# [3] = tested on: B cell; assay: Antiproliferative activity against human B cells by thymidine incorporation assay; format: functional, cell-based
# [4] = target: T1, Phosphatidylinositol 4,5-bisphosphate 3-kinase catalytic subunit delta isoform; assay: Inhibition of PI3Kdelta in BCR-stimulated human B cells assessed as suppression of CD86 expression after 18 hrs by FACS analysis
# [5] = Stability in rat liver microsomes assessed as parent compound remaining at 0.5 uM after 10 mins by high throughput assay; format: ADME, Microsome; settings: read-out: Stability
# [6] = tested on: Cytochrome P450; assay: Inhibition of Cytochrome P450 (unknown origin); format: ADME, protein assay; settings: human
# [7] = Oral bioavailability in mouse; format: ADME, organism-based; settings: in vivo
# [8] = Cmax in mouse at 30 mg/kg, po; format: ADME, organism-based; design: dose 30 mg/kg, route oral; settings: in vivo
# [9] = Half life in mouse; format: ADME, organism-based; settings: in vivo
# [10] = tested on: Mus musculus; assay: Antiarthritic activity in DBA/1 mouse model of collagen-induced arthritis assessed as reduction in clinical arthritic scores at 100 mg/kg, po pretreated for 2 hrs followed by first collagen injection measured after second collagen injection on day 21 relative to control; format: functional; design: scale not given: the % may be the effect or the level left
# [11] = Volume of distribution in mouse; format: ADME, organism-based; settings: in vivo
# [12] = Clearance in mouse; format: ADME, organism-based; settings: in vivo
# [13] = AUC in mouse at 30 mg/kg, po; format: ADME, organism-based; settings: in vivo
# [14] = tested on: Mus musculus; assay: Antiarthritic activity in DBA/1 mouse model of collagen-induced arthritis assessed as reduction in anti-collagen IgG titres at 100 mg/kg, po pretreated for 2 hrs followed by first collagen injection measured after second collagen injection on day 21 by ELISA relative to control; format: functional; design: scale not given: the % may be the effect or the level left
# [15] = tested on: Mus musculus; assay: Antiarthritic activity in DBA/1 mouse model of collagen-induced arthritis assessed as reduction in anti-collagen IgG titres at 1 mg/kg/day, po pretreated for 2 hrs followed by first collagen injection measured after second collagen injection on day 21 by ELISA relative to control; format: functional; design: scale not given: the % may be the effect or the level left
# [16] = tested on: Mus musculus; assay: Antiarthritic activity in DBA/1 mouse model of collagen-induced arthritis assessed as reduction in clinical arthritic scores at 1 mg/kg/day, po pretreated for 2 hrs followed by first collagen injection measured after second collagen injection on day 21 relative to control; format: functional; design: scale not given: the % may be the effect or the level left
Compound,IC50 [1],"remaining at 10 min, 0.5 µM [2]",IC50 [3],further results
Cn1cc(-c2cc(-c3ccnn3C3CCCCC3)c3c(N)ncnn23)cn1,11 nM,–,–,–
Nc1ncnn2c(-c3cccnc3)cc(-c3ccnn3C3CCOCC3)c12,42 nM,–,–,–
CC1(C)OC(=O)NC1c1cccc(-c2cc(-c3ccnn3C3CCOCC3)c3c(N)ncnn23)c1 (centres undefined),–,45%,31 nM,–
Nc1ncnn2c(-c3cccnc3)cc(-c3ccnn3C3CCS(=O)(=O)CC3)c12,163 nM,–,–,–
Nc1ncnn2c(-c3cccnc3)cc(-c3ccnn3C3CCCC3)c12,29 nM,–,–,–
Nc1ncnn2c(-c3cccc(C(=O)N4CCCC4)c3)cc(-c3ccnn3C3CCCCC3)c12,2 nM,–,–,IC50 [4]: 36 nM
Nc1ncnn2c(-c3cccc(CN4CCCC4=O)c3)cc(-c3ccnn3C3CCOCC3)c12,–,19%,35 nM,–
Nc1ncnn2c(-c3ccc(CO)cc3)cc(-c3ccnn3C3CCCCC3)c12,31 nM,–,–,–
Nc1ncnn2c(-c3ccccc3)cc(-c3ccnn3C3CCCCC3)c12,576 nM,–,–,–
CC(C)C(=O)N1C[C@H](O)C[C@H]1c1cccc(-c2cc(-c3ccnn3C3CCOCC3)c3c(N)ncnn23)c1,1 nM,4%,8 nM,IC50 [4]: 110 nM
CN1CCN(Cc2cccc(-c3cc(-c4ccnn4C4CCOCC4)c4c(N)ncnn34)c2)CC1,4 nM,100%,28 nM,IC50 [4]: 721 nM
Nc1ncnn2c(-c3cccc(CO)c3)cc(-c3ccnn3C3CCCCC3)c12,27 nM,–,–,–
CN1CCC(n2nccc2-c2cc(-c3cccnc3)n3ncnc(N)c23)CC1,150 nM,–,–,–
Nc1ncnn2c(-c3ccncc3)cc(-c3ccnn3C3CCCCC3)c12,22 nM,16%,–,"remaining at 10 min, 0.5 µM [5]: 46%"
NCc1ccc(-c2cc(-c3ccnn3C3CCCCC3)c3c(N)ncnn23)cc1,26 nM,–,–,–
CS(=O)(=O)NCc1cccc(-c2cc(-c3ccnn3C3CCOCC3)c3c(N)ncnn23)c1,–,–,99 nM,–
Nc1ncnn2c(-c3cccnc3)cc(-c3ccnn3C3CCCCCC3)c12,231 nM,–,–,–
CN1C[C@H](O)C[C@@H]1c1cccc(-c2cc(-c3ccnn3C3CCOCC3)c3c(N)ncnn23)c1,–,65%,87 nM,–
Nc1ncnn2c(-c3cccnc3)cc(-c3ccnn3C3CCCCC3)c12,22 nM,–,–,inhibition (INH) [6]: Not Active
CC(C)Cn1nccc1-c1cc(-c2cccnc2)n2ncnc(N)c12,252 nM,–,–,–
CN(C)C1(c2cccc(-c3cc(-c4ccnn4C4CCOCC4)c4c(N)ncnn34)c2)COC1,–,70%,9 nM,–
CN(C)c1cccc(-c2cc(-c3ccnn3C3CCCCC3)c3c(N)ncnn23)c1,3 nM,–,–,IC50 [4]: 16 nM
Nc1ncnn2c(-c3cccc(S(N)(=O)=O)c3)cc(-c3ccnn3C3CCCCC3)c12,14 nM,–,–,–
Nc1ncnn2c(-c3cccc(C4(N5CCOCC5)COC4)c3)cc(-c3ccnn3C3CCOCC3)c12,–,6%,1 nM,–
CN(C)C(C)(C)c1cccc(-c2cc(-c3ccnn3C3CCOCC3)c3c(N)ncnn23)c1,–,58%,6 nM,bioavailability [7]: 46%; Cmax [8]: 2890 nM; half-life [9]: 1 h; Activity [10]: 100%; Vd [11]: 6.2 L/kg; clearance [12]: 82.1 mL/min/kg; AUC [13]: 6.23 µM·h; Activity [14]: 80%
Nc1ncnn2ccc(-c3ccnn3C3CCCCC3)c12,405 nM,–,–,–
CC(C)[C@H]1COC(=O)N1Cc1cccc(-c2cc(-c3ccnn3C3CCOCC3)c3c(N)ncnn23)c1,–,0.09%,–,–
CN(Cc1cnc2nc(N)nc(N)c2n1)c1ccc(C(=O)N[C@@H](CCC(=O)O)C(=O)O)cc1 [METHOTREXATE],–,–,–,Activity [15]: 63%; Activity [16]: 83%
